From ChEMBL document CHEMBL1201862, “PubChem BioAssay data set” (2004)
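How tested: cells in 96-well plates exposed to compound for 48 hours at five concentrations. GI50 is the concentration that inhibits growth by half.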 Calls of active or inactive are those of the source. Cut-off read from the data, not from the text of the source: active = GI50 up to about 1.1 µM and inactive = higher.

Legend:
Experiment in all cases: NCI anticancer screen, dose series, 48 h
HCT-15 = system: HCT-15
SN12C = system: SN12C
NCI/ADR-RES = system: NCI/ADR-RES
A549 = system: A549
SF-295 = system: SF-295
IGROV-1 = system: IGROV-1
SK-MEL-28 = system: SK-MEL-28
SF-268 = system: SF-268
COLO 205 = system: COLO 205
HT-29 = system: HT-29
HOP-62 = system: HOP-62
OVCAR-5 = system: OVCAR-5
T47D = system: T47D
K562 = system: K562
SF-539 = system: SF-539
SNB-19 = system: SNB-19
SNB-75 = system: SNB-75
MDA-MB-435 = system: MDA-MB-435
NCI-H460 = system: NCI-H460

| Structure (SMILES) | GI50 (HCT-15) [µM] | GI50 (SN12C) | GI50 (NCI/ADR-RES) | GI50 (A549) | GI50 (SF-295) | GI50 (IGROV-1) | GI50 (SK-MEL-28) | GI50 (SF-268) | GI50 (COLO 205) | GI50 (HT-29) | GI50 (HOP-62) | GI50 (OVCAR-5) | GI50 (T47D) | GI50 (K562) | GI50 (SF-539) | GI50 (SNB-19) | GI50 (SNB-75) | GI50 (MDA-MB-435) | GI50 (NCI-H460) |
| --- | --- | --- | --- | --- | --- | --- | --- | --- | --- | --- | --- | --- | --- | --- | --- | --- | --- | --- | --- |
| O=C(NCCCNC(=O)c1ccc2c(O)c(O)ccc2c1)c1ccc2c(O)c(O)ccc2c1 | 27.6 | 22.4 µM (inactive) | 38.1 µM (inactive) | 32.3 µM (inactive) | 19.2 µM (inactive) | 18.8 µM (inactive) | 97.9 µM (inactive) | 22.9 µM (inactive) | 22.9 µM (inactive) | 26.2 µM (inactive) | 21.2 µM (inactive) | 29.1 µM (inactive) | > 100 µM (inactive) | 19.1 µM (inactive) | 28.1 µM (inactive) | 25.7 µM (inactive) | 17.1 µM (inactive) | 15.1 µM (inactive) |  |
| Cc1ccc(S(=O)(=O)c2ccsc2NC(=O)C(F)(F)F)cc1 | 34.9 | 25.2 µM (inactive) | 31.7 µM (inactive) | 34 µM (inactive) | 37.8 µM (inactive) | 62.8 µM (inactive) | 93.5 µM (inactive) | 28.3 µM (inactive) | 10.8 µM (inactive) | 35.8 µM (inactive) | 34.7 µM (inactive) | 50.1 µM (inactive) | 39.3 µM (inactive) |  | 39.7 µM (inactive) | 65 µM (inactive) | 24.9 µM (inactive) | 44.5 µM (inactive) | 27.3 µM (inactive) |
| COc1ccc(CC(N)c2ccc(OC)cc2)cc1 (configuration not stated) | > 100 | > 100 µM (inactive) | > 100 µM (inactive) | > 100 µM (inactive) | > 100 µM (inactive) | 66.7 µM (inactive) | 38.4 µM (inactive) | > 100 µM (inactive) | 18.2 µM (inactive) | 45.4 µM (inactive) | > 100 µM (inactive) | > 100 µM (inactive) | 46.3 µM (inactive) | 33.1 µM (inactive) |  | > 100 µM (inactive) | 77.1 µM (inactive) | 37.2 µM (inactive) | 39.9 µM (inactive) |
| N#Cc1nc(CSCc2ccccc2)oc1N | > 100 | > 100 µM (inactive) | > 100 µM (inactive) | > 100 µM (inactive) | > 100 µM (inactive) | > 100 µM (inactive) | > 100 µM (inactive) | > 100 µM (inactive) | > 100 µM (inactive) | > 100 µM (inactive) | > 100 µM (inactive) | > 100 µM (inactive) | > 100 µM (inactive) |  | > 100 µM (inactive) |  |  | > 100 µM (inactive) | > 100 µM (inactive) |
| CCCC(=O)Nc1ccc2c(c1)CN1C(=O)c3ccccc3C1=N2 | > 100 | > 100 µM (inactive) | > 100 µM (inactive) | > 100 µM (inactive) | 69.5 µM (inactive) | > 100 µM (inactive) | > 100 µM (inactive) | > 100 µM (inactive) | > 100 µM (inactive) | > 100 µM (inactive) | > 100 µM (inactive) | > 100 µM (inactive) | > 100 µM (inactive) |  | > 100 µM (inactive) | > 100 µM (inactive) | 49.5 µM (inactive) | > 100 µM (inactive) | > 100 µM (inactive) |
| CCOC(=O)Cn1nc2ccc(Nc3c(C)[n+]([O-])c4cc(F)c(OCC)cc4[n+]3[O-])cc2n1 | > 100 |  | > 100 µM (inactive) |  | 44.2 µM (inactive) | > 100 µM (inactive) | > 100 µM (inactive) | 50.9 µM (inactive) |  | > 100 µM (inactive) | 33 µM (inactive) | > 100 µM (inactive) | > 100 µM (inactive) | > 100 µM (inactive) | 83 µM (inactive) |  |  | > 100 µM (inactive) | > 100 µM (inactive) |
| COc1cc(-c2c[nH]c3ccccc23)nc(-c2c[nH]c3ccccc23)n1 | 5.61 |  | 8.87 µM (inactive) | 3.27 µM (inactive) | 3.13 µM (inactive) | 1.85 µM (inactive) |  | 14.7 µM (inactive) | 8.32 µM (inactive) | 3.63 µM (inactive) | 8.89 µM (inactive) | 8.13 µM (inactive) | 5.19 µM (inactive) | 3.96 µM (inactive) | 7.14 µM (inactive) | 5.26 µM (inactive) | 6.1 µM (inactive) | 5.77 µM (inactive) | 3.08 µM (inactive) |
| CC(=C/C=C/C=C(C)\C=C\C=C(\C)C(=O)O)/C=C/C=C(/C)C(=O)O | > 100 | > 100 µM (inactive) | > 100 µM (inactive) | > 100 µM (inactive) | > 100 µM (inactive) | > 100 µM (inactive) | > 100 µM (inactive) | > 100 µM (inactive) | > 100 µM (inactive) | > 100 µM (inactive) | > 100 µM (inactive) | > 100 µM (inactive) | > 100 µM (inactive) | > 100 µM (inactive) | > 100 µM (inactive) |  | > 100 µM (inactive) | > 100 µM (inactive) | > 100 µM (inactive) |
